For one assay, the target named is human CB2R (Homo sapiens, UniProt P34972). The assay can be described thus: CB2R mediated modulation of cAMP synthesis. Format: cell-based.
human CB2R, sequence (P34972 whole entry): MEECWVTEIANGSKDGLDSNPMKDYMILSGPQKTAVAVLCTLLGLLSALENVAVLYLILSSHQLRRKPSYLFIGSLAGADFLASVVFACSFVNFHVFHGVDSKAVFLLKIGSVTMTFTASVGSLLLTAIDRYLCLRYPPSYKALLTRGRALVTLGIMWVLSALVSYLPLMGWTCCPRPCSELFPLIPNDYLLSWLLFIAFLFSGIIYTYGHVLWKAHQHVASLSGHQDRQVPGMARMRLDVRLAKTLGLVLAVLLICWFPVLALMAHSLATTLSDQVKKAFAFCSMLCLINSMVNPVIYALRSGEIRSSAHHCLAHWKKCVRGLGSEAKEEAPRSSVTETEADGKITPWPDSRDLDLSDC
Settings: not given
The procedure, abridged: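 cAMP measured with the DiscoverX-XS kit after 30 min, 37° C. compound exposure of human CB2R-expressing CHO cells stimulated by 10 uM forskolin (1 mM IBMX, 0.25% BSA).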
Molecule `CC(C)(C)c1cc(NC(=O)[C@@H]2CCCN2CCCO)on1` [(S)-1-(3-Hydroxy-propyl)-pyrrolidine-2-carboxylic acid (3-tert-butyl-isoxazol-5-yl)-amide] returned an EC50 of 28.6 nM.
Still for that read-out and setting: the same measure for `CC(C)(C)c1cc(NC(=O)[C@]2(C)CCCN2c2ccc(C(F)(F)F)cn2)no1` [(S)-2-Methyl-1-(5-trifluoromethyl-pyridin-2-yl)-pyrrolidine-2-carboxylic acid (5-tert-butyl-isoxazol-3-yl)-amide]: 0.015 nM; for `CC(C)(C)c1cc(NC(=O)[C@@H]2CCCN2Cc2ccc(F)cc2)on1` [(S)-1-(4-Fluoro-benzyl)-pyrrolidine-2-carboxylic acid (3-tert-butyl-isoxazol-5-yl)-amide]: 0.747 nM; for `Cc1cc(N2C(=O)CC[C@H]2C(=O)Nc2cc(C(C)(C)C)no2)ccc1F` [(S)-1-(4-Fluoro-3-methyl-phenyl)-5-oxo-pyrrolidine-2-carboxylic acid (3-tert-butyl-isoxazol-5-yl)-amide]: 91.2 nM.
As for `O=C(Nc1ccc(F)c(C(F)(F)F)c1)[C@@H]1CCCN1c1ccc(Cl)cc1` [(S)-1-(4-Chloro-phenyl)-pyrrolidine-2-carboxylic acid (4-fluoro-3-trifluoromethyl-phenyl)-amide], the 50% effective concentration (EC50) amounted to 19.1 nM.
`CC(C)c1ccc(N2C(=O)CC[C@H]2C(=O)Nc2cc(C(C)(C)C)no2)cc1` [(S)-1-(4-Isopropyl-phenyl)-5-oxo-pyrrolidine-2-carboxylic acid (3-tert-butyl-isoxazol-5-yl)-amide] had an EC50 of 159 nM.
On the same count and under the same terms, the same measure for `CC(C)(C)c1cc(NC(=O)[C@@H]2CCCN2Cc2ccc(OC(F)F)cc2)on1` [(S)-1-(4-Difluoromethoxy-benzyl)-pyrrolidine-2-carboxylic acid (3-tert-butyl-isoxazol-5-yl)-amide]: 8.04 nM; for `CC(C)(C)c1cc(NC(=O)[C@@H]2C[C@@H](O)CN2CC2CCOCC2)no1` [(2S,4R)-4-Hydroxy-1-(tetrahydro-pyran-4-ylmethyl)-pyrrolidine-2-carboxylic acid (5-tert-butyl-isoxazol-3-yl)-amide]: 3.89 nM; for `C=Cc1ccc(N2C(=O)CC[C@H]2C(=O)Nc2cc(C(C)(C)C)no2)cc1` [(S)-5-Oxo-1-(4-vinyl-phenyl)-pyrrolidine-2-carboxylic acid (3-tert-butyl-isoxazol-5-yl)-amide]: 20.3 nM.
Still for that read-out and setting: next, `CC(C)(CO)c1cc(NC(=O)[C@@H]2C[C@@H](O)CN2c2ccc(Cl)cc2)on1` [(2S,4R)-1-(4-Chloro-phenyl)-4-hydroxy-pyrrolidine-2-carboxylic acid [3-(2-hydroxy-1,1-dimethyl-ethyl)-isoxazol-5-yl]-amide]: 196 nM.
Same read-out and setting: next, `CC(C)(C)c1cc(NC(=O)[C@@H]2CCCN2CC2CCCCC2)on1` [(S)-1-Cyclohexylmethyl-pyrrolidine-2-carboxylic acid (3-tert-butyl-isoxazol-5-yl)-amide]: 0.079 nM; `CC(C)(C)c1nnc(NC(=O)[C@@H]2CCCN2CC2CC2)s1` [(S)-1-Cyclopropylmethyl-pyrrolidine-2-carboxylic acid (5-tert-butyl-1,3,4-thiadiazol-2-yl)-amide]: 340 nM; `CC(C)(C)C1CCC(NC(=O)[C@@H]2CCC(=O)N2c2ccc(Cl)cc2)CC1` (stereo partly drawn) [(S)-1-(4-Chloro-phenyl)-5-oxo-pyrrolidine-2-carboxylic acid (4-tert-butyl-cyclohexyl)-amide]: 159 nM.

The assay is the same for the next values; noted with them: CHO cells expressing human CB2R; inhibition of forskolin-stimulated cAMP synthesis; mean; read-out: CB2 CAMP @ EC50 nM (mean).
Regarding `Cc1nonc1CNC(=O)[C@@H]1CCCN1c1ccc(Cl)cc1` [(S)-1-(4-Chloro-phenyl)-pyrrolidine-2-carboxylic acid (4-methyl-furazan-3-ylmethyl)-amide], the EC50 was 498 nM.
Consider `O=C(Nc1nc2c(s1)CCCC2)[C@@H]1CCCN1c1ccc(Cl)cc1` [(S)-1-(4-Chloro-phenyl)-pyrrolidine-2-carboxylic acid (4,5,6,7-tetrahydro-benzothiazol-2-yl)-amide], for which the half-maximal effective concentration (EC50) was 12.7 nM.

What is called EC50 is the concentration needed to bring the measured effect to its halfway point.

(Values after US8629157B2, “Pyrrolidine compounds which modulate the CB2 receptor” (Boehringer Ingelheim International GmbH, priority 2009, dated 2014).)
